How the values were obtained:
[1] = system: SOD1^G93A mice; assay: Disease onset (neuroscore NS2) and survival (NS4) in SOD1^G93A mice; type: in vivo, mouse; conditions: for Effect on disease onset / Effect on survival: male SOD1^G93A mice, 10 mg/kg or 30 mg/kg daily oral gavage, vs vehicle
Excerpt: The SOD1^G93A transgenic mouse model of ALS has been the most widely used animal model since the 1990s. The mouse was genetically engineered to overexpress a mutant form of the human Cu/Zn superoxide dismutase 1 (SOD1) gene harboring an ALS-associated glycine to alanine mutation at amino acid position 93 (G93A). These mice replicate many of the features of ALS, such as motor neuron loss, muscle wasting, progressive paralysis and decreased survival. Additionally, the SOD1^G93A mouse model has shown to be ideal for drug screening because of early onset of the disease and moderate progression.
The mice were treated with vehicle, 10 mg/kg or 30 mg/kg CuATSM or one of the derivatives: Compound 25 (2% DMSO, 10% KolliphorHS15), Compound 9 (0.5% methylcellulose), Compound 24 (0.5% methylcellulose, 0.4% TWEEN-80), and Compound 37 (0.5% methylcellulose, 0.4% TWEEN-80). Measurements were taken to assess compound muscle action potential (CMAP), neuroscore, and disease onset and survival.
Neuroscore is a neurological scoring system based on visual observations of the hindlimb designed to assess the neuromuscular function of SOD1^G93A mice. The hindlimb is observed due to this being the earliest reported neurological sign of disease in SOD1^G93A mice. This method provides an unbiased assessment of onset of paresis (slight or partial paralysis) and the progression and severity of the paralysis. This method has also proven to be sensitive enough to identify drug-induced changes in disease progression. Neuroscore is assigned on a 0-4 scale corresponding to the following observations: NS0=the hindlimbs present with a normal splay; NS1=hindlimbs present with an abnormal splay; NS2=the hindlimbs show signs of paresis or are partially paralyzed; NS3=rigid paralysis in the hindlimbs; NS4=the mouse is unable to right itself up. These measurements were used in the current study to assess disease onset.
The onset of disease in the SOD1^G93A mice typically happens around age day 90-100, with mice eventually succumbing to the disease around age day 120-130. For comparison, a wild-type mouse of the same background may live up to 2 years. The onset of the disease in the current study was defined as the time to observe a neuroscore of NS2 in the mouse, while a neuroscore of a NS4 was considered to be the humane end-point. Reported p-values to illustrate statistical significant represent a log-rank test.

[2] = system: SOD1^G93A mice; assay: Compound muscle action potential (CMAP) in SOD1^G93A mice; type: in vivo, mouse
[3] = system: transgenic mouse models of ALS; conditions: transgenic mice expressing human SOD1 with familial ALS mutations; cited from earlier work
[4] = male SOD1^G93A mice, 10 mg/kg or 30 mg/kg daily, four weeks, vs vehicle

With CN/C1=N/N=C(C)/C(Cc2cccnc2)=N/N=C(/NC)[S][Cu][S]1 [Compound 9] the “Effect on disease onset” value [1] was “did not significantly affect” and the Effect on survival [1] was “did not significantly affect”.
With CCN/C1=N/N=C(c2ccc(CN3CCOCC3)o2)/C(C)=N/N=C(/NCC)[S][Cu][S]1 [Compound 24] the “CMAP values (change from baseline, % of baseline)” value ([2]; male SOD1^G93A mice, 10 mg/kg or 30 mg/kg daily oral gavage, five weeks, vs control) was “did not significantly improve CMAP values”.
With CN/C1=N/N=C(c2ccco2)/C(C)=N/N=C(/NC)[S][Cu][S]1 [Compound 25] the “Survival efficacy study (onset of neurological disease, survival, body weight, neurological score)” value ([1]; litter-matched, gender-balanced SOD1^G93A mice, chronic daily 30 mg/kg, vs control) was “displayed benefits”, the “CMAP as a percentage of baseline” value ([2]; SOD1^G93A mice, 10 mg/kg or 30 mg/kg daily oral gavage, 5 weeks, vs vehicle) was “significantly less change than the mice receiving vehicle” and the “CMAP change from baseline” value ([2]; SOD1^G93A mice, 10 mg/kg or 30 mg/kg daily oral gavage, five weeks, vs control) was “significant change in CMAP measurements from baseline compared to control mice”.
In the case of CCN/C1=N/N=C(c2ccc(CN3CCN(C)CC3)o2)/C(C)=N/N=C(/NCC)[S][Cu][S]1 [Compound 37], the “Effect on disease onset” value [1] is reported as “neither dose significantly affected”, the Effect on survival [1] is reported as “neither dose significantly affected” and the CMAP decline ([2]; male SOD1^G93A mice, 10 mg/kg or 30 mg/kg daily oral gavage, four weeks) is reported as “did not attenuate the CMAP decline”.
In the case of CN=C([S-])N/N=C(C)/C(C)=N/NC([S-])=NC.[Cu+2] [CuATSM, reference compound], the “CMAP change from baseline” value [2, 4] is listed as “no differences”, the “percent of baseline CMAP” value [2, 4] is listed as “no differences” and the “Protection in transgenic mouse models of ALS” value [3] is listed as “protective”.
